“Also recorded” adds a separate entry of the source.
What was measured:
Assay type in all cases: cell-based
T-type α1H channel [1] = molecular target: T1, T-type α1H channel (Homo sapiens, UniProt O95180); assay: Fluo-3 fluorescent calcium imaging (cooled CCD) in clone #30 cells (HEK293-TChH-IRK2.1); conditions: for increase of intracellular calcium signal (fluorescent image) upon KCl depolarization: 60 mM KCl
T1 construct: expressed in transfected cells; clone #30, KCTC 10780BP
Method: (§1) Intracellular calcium concentrations were measured by the ratio fluorescence system (Ratiomaster, Photon Technology International, USA) installed on a fluorescent microscope (Nikon TE2000, Japan) as well as CoolSNAP CCD imaging system (Loafer Scientific, USA). Particularly, Fura-2/AM or Fluo-3 (Molecular Probes, USA) was added up to 5 μM to cells cultured on a cover slip, followed by loading at room temperature for 30-60 minutes with the light blocked. After the loading, the cells were washed twice with an extracellular flushing medium, and then the cover slip, on which the cells were stuck, was put on a perfusion chamber on the microscope. In the case of Fura-2/AM, the changes in the intracellular calcium (Ca^2+) concentration were measured using a photomultiplier (PM) tube in the ratio of fluorescence (F340/F380 t) emitted at 510 nm when 340 nm and 380 nm were used for excitation respectively. When Fluo-3 was used, fluorescent ratios were not measured but the fluorescent image emitted at 525 nm was recorded and captured by a cooled CCD, which was then analyzed by the Metaimage 6.1 program (Imaging Corporation, USA).
To measure fluorescent calcium image, Fluo-3 was loaded to clone #30 cells.

[2] = molecular target: T2, human potassium channel Kir2.1 (Homo sapiens, UniProt P63252); assay: Gramicidin-perforated current-clamp measurement of membrane potential of clone #30; conditions: 100 μM barium
T2 construct: expressed in transfected cells; host or cells: HEK293 stably expressing human T-type α1H; clone #30 (HEK293-TChH-IRK2.1, KCTC 10780BP)
T2 sequence (P63252 1-427): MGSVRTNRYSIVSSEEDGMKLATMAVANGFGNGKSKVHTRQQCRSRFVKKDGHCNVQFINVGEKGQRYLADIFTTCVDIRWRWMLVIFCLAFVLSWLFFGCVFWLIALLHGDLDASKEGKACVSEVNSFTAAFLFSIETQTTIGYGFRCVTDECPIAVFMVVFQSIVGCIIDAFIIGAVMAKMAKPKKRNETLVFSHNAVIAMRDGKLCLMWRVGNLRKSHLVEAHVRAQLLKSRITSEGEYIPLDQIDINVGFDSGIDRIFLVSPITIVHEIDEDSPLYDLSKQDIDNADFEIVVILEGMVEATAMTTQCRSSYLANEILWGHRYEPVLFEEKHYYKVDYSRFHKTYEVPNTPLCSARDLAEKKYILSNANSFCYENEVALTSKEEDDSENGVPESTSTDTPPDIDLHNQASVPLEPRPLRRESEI
Method: (§2) The procedures and conditions of the experiment were as follows. The T-type calcium current and inwardly rectifying potassium current (referred as “IRK current” hereinafter) were recorded by the whole-cell ruptured patch-clamp method (Hamil et al., Pflugers Arch., 391:85-100, 198; Jeong and Ikeda, Neuron, 21:1201-1212, 1998), a voltage clamp technique, to confirm which clone could best express the human T-type α1H channel and human potassium channel Kir2.1. In the meantime, the resting membrane potential of the clones that were confirmed by the measurement of calcium and potassium currents was monitored by the gramicidin-perforated current-clamp method (Akaike, Prog. Biophys. Mol. Biol., 65:251-264, 1997).
(§3) The patch electrode used in the measurement above was prepared with a borosilicate glass tube (Corning, USA) by a P-97 flaming brown micro-pipette puller (Sutter Instrument, USA). […] The cell capacitance and series resistance were adjusted to more than 80% by using Axopatch-1D (Axon Instruments, USA) or EPC-10 amplifier (HEKA, Germany). S4 (prepared by Dr. Stephen R. Ikeda, USA) using ITC18 (Instrutech, USA) or Pulse (HEKA, Germany) was used for the generation and data collection of the voltage-stimulating protocol. […] The results were recorded in a computer. […]
(§4) The T-type α1H channel current, activated at −50 mV and showing maximum activity at −30 mV, was recorded as well. […]

[3] = molecular target: T2, human potassium channel Kir2.1; assay: Whole-cell ruptured patch-clamp recording of inwardly rectifying potassium (IRK) current in clone #30; design: dose or concentration left out as unconfirmed; conditions: Ba^2+, voltage clamp
Method: as §2, §3, §4

T-type α1H channel [4] = molecular target: T1, T-type α1H channel; assay: Fura-2/AM ratio fluorescence (F340/F380) calcium assay in single cell of clone #30 (HEK293-TChH-IRK2.1) depolarized by KCl; conditions: depolarization by 60 mM KCl, pre-treatment with mibefradil (3 μM elsewhere in the source)
Method: as §1

T1 sequence (O95180 whole entry): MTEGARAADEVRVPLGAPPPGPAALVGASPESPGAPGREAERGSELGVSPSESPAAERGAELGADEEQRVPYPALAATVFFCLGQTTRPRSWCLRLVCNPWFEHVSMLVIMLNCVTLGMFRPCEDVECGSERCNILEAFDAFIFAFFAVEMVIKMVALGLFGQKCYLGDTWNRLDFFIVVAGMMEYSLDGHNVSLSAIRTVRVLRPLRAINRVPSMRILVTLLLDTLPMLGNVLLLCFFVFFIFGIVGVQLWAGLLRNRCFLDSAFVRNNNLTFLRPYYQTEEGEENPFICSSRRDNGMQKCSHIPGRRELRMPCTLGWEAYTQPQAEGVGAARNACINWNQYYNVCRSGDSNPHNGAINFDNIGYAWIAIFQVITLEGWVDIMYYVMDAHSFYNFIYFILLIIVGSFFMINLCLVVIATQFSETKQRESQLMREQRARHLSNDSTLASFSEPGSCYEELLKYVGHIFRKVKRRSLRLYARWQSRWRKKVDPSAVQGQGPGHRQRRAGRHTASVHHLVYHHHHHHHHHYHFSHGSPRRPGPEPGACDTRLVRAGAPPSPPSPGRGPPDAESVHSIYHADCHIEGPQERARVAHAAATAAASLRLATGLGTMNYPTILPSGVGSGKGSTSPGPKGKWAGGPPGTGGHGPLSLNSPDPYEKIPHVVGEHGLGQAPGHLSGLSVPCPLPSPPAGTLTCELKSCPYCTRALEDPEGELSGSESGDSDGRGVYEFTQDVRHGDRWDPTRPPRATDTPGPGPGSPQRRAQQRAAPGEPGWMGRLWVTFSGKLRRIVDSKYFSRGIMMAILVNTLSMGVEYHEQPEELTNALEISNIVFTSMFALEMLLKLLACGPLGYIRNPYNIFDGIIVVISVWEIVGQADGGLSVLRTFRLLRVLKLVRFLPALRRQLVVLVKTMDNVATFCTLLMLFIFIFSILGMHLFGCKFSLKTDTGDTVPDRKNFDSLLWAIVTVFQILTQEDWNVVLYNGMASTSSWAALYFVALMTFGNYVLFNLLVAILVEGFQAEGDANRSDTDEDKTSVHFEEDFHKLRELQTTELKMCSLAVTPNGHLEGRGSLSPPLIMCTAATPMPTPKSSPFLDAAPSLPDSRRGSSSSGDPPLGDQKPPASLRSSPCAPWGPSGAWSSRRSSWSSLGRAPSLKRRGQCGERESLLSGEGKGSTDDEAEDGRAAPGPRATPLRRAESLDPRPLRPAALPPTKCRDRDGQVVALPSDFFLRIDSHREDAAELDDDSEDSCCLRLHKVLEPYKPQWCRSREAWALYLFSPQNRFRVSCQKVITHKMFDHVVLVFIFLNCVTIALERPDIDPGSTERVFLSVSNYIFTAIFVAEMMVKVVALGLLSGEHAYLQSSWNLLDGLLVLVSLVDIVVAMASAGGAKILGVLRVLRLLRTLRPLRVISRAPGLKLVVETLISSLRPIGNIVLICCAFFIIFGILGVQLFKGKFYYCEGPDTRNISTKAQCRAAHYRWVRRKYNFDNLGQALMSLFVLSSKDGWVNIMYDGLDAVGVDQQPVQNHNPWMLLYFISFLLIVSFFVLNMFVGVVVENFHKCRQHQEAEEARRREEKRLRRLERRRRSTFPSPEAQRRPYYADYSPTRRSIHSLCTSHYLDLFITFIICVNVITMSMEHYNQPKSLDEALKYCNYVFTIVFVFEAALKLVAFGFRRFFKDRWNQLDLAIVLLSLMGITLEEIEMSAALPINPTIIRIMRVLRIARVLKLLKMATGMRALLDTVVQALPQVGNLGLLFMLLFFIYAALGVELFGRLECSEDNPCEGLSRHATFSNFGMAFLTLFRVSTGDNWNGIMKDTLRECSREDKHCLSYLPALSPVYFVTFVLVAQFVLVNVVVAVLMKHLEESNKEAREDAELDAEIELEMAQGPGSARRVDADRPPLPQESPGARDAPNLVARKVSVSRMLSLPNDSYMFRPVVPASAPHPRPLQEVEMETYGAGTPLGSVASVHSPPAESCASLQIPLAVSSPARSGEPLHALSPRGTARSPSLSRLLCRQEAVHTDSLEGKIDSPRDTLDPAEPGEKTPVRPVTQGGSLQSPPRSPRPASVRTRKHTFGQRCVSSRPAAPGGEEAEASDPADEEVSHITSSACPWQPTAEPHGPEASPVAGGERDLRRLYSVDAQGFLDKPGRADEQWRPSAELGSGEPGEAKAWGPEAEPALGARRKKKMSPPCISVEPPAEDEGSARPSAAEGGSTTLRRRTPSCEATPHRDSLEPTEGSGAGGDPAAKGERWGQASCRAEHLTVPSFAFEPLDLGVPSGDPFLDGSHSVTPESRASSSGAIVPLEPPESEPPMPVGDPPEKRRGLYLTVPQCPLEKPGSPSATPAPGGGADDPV

## [Ni+2] [Ni^2+, nickel (Ni^2+)]
T-type α1H channel [1]; pre-treatment with 100 μM nickel
  increase of intracellular calcium signal (fluorescent image) upon KCl depolarization: completely inhibited
T-type α1H channel [1]; pre-treatment with 100 mM Ni^2+
  increase of intracellular calcium signal (fluorescent image) upon KCl depolarization: completely inhibited

## [Ba+2] [Ba^2+, barium]
[2]
  membrane potential response: Ca^2+ spikes or action potentials were induced with depolarization
[3]
  IRK current: blocked

## COCC(=O)O[C@]1(CCN(C)CCCc2nc3ccccc3[nH]2)CCc2cc(F)ccc2[C@@H]1C(C)C [mibefradil]
T-type α1H channel [1]; pre-treatment with mibefradil (3 μM elsewhere in the source)
  increase of intracellular calcium signal (fluorescent image) upon KCl depolarization: completely inhibited; also recorded: completely blocked
T-type α1H channel [1]; no KCl, mibefradil (3 μM elsewhere in the source)
  intracellular calcium level at non-depolarized resting phase (number of red cells): reduced remarkably; also recorded: remarkably reduced
T-type α1H channel [4]
  increase in intracellular calcium (F340/F380 ratio) by influx through T-type α1H channels: completely blocked; also recorded: completely inhibited

From US7674596B2 (priority 2005, dated 2010)
